This is an account of results in paper PMC3424241, “The Octadecaneuropeptide ODN Protects Astrocytes against Hydrogen Peroxide-Induced Apoptosis via a PKA/MAPK-Dependent Mechanism” (PLoS ONE, 2012).

Test [1] has as its system cultured rat astrocytes. The conditions noted are these: ODN 0.1 nM, 300 µM H2O2; cited from earlier work. Here is the method:
In order to determine the receptor involved in the protective effect of ODN, we have first examined the dose- and the time-course effect of the peptide on detrimental action of H2O2. The protective action of ODN was concentration-dependent for doses ranging from 1 fM to 0.1 nM (Figure 1A). […] The protectiv ...

Test [2] deals with cultured rat astrocytes. The test can be described thus: Cell survival after H2O2, FDA fluorescence. It is filed as cell-based. Here is the method: Secondary cultures of rat cortical astrocytes were prepared as previously described [64]with minor modifications. Briefly, cerebral hemispheres from newborn Wistar rats were collected in DMEM/F12 (2∶1; v/v) culture medium supplemented with 2 mM L-glutamine, 1‰ insulin, 5 mM HEPES, 0.4% glucose and 1% of the antibiotic-antimycotic solution. The tissues were dissociated mechanically with a syringe equipped with a 1-mm gauge needle, and filtered through a 100-µm sieve (Falcon, Franklin Lakes, NJ, USA). […] When cultures were confluent, astrocytes were isolated by shaking overnight the flasks on an orbital agitator. Adhesive cells were detached by trypsination and preplated for 5 min to discard contaminating microglial cells. Then, the non-adhering astrocytes were harvested and plated on 35-mm hydrophilic surface Petri dishes at a density of 3×10^5 cells/ml. […] The cells were incubated at 37°C in a humid atmosphere (5% CO2). […] All experiments were performed on 5- to 7-day-old secondary cultures.
(§1) Cultured cells were incubated at 37°C with fresh serum-free culture medium in the absence or presence of H2O2 and/or ODN for 1 h. Cells were then incubated for 10 min at 37°C with 0.3 µg/ml calcein-AM (producing green fluorescence in living cells), rinsed twice with culture medium without probe and examined on an inverted microscope (Leica, Heidelberg, Germany) equipped with a double pass filter.
For quantification of surviving astrocytes, cells were incubated for 8 min with 15 µg/ml FDA-AM, rinsed twice with phosphate-buffered saline (PBS) and lysed with a Tris/HCl solution containing 1% sodium dodecyl sulfate (SDS). Fluorescence was measured with excitation at 485 nm and emission at 538 nm, using a microplate reader (Bio-Tek FLx 800).

The subject of test [3] is cultured rat astrocytes. The test can be described thus: Living-cell staining and morphology with calcein-AM after H2O2. The format is cell-based. The conditions noted are these: ODN 0.1 nM pretreatment 10 min, then 1 h 300 µM H2O2; calcein-AM staining. Here is the method: (§2) Secondary cultures of rat cortical astrocytes were prepared as previously described [64]with minor modifications. Briefly, cerebral hemispheres from newborn Wistar rats were collected in DMEM/F12 (2∶1; v/v) culture medium supplemented with 2 mM L-glutamine, 1‰ insulin, 5 mM HEPES, 0.4% glucose and 1% of the antibiotic-antimycotic solution. The tissues were dissociated mechanically with a syringe equipped with a 1-mm gauge needle, and filtered through a 100-µm sieve (Falcon, Franklin Lakes, NJ, USA). Dissociated cells were resuspended in culture medium supplemented with 10% FBS, plated in 175-cm^2 flasks (Greiner Bio-one GmbH, Frickenhausen, Germany) and incubated at 37°C in a 5% CO2/[…] atmosphere. When cultures were confluent, astrocytes were isolated by shaking overnight the flasks on an orbital agitator. Adhesive cells were detached by trypsination and preplated for 5 min to discard contaminating microglial cells. […]
as §1

The test system of test [4] is cAMP formation in astroglial cells (adenylyl cyclase). The experiment in a line: cAMP production, radioimmunoassay. The format is cell-based, rat. The conditions noted are these: ODN 10 pM; 0.1 mM IBMX, 10 min incubation; p<0.001. Here is the method: as §2, with “cells. Then, the non-adhering astrocytes were harvested and plated on 35-mm hydrophilic surface Petri dishes at a density of 3×10^5 cells/ml.” for “cells.”
Cultured cells were pre-incubated for 30 min in serum-free medium containing 0.1 mM IBMX to inhibit phosphodiesterases, and then incubated in the same solution, in the presence or absence of test substances. […] The concentration of cAMP was measured by using a cAMP RIA kit. […]
Background: cAMP levels reflect the balance of adenylyl cyclase and phosphodiesterase activity.

Test [5] has as its system Bax. The experiment in a line: Bax mRNA level, quantitative RT-PCR. The format is cell-based, rat. The settings on record: ODN 0.1 nM. Here is the method: as §2, with “cells. Then, the non-adhering astrocytes were harvested and plated on 35-mm hydrophilic surface Petri dishes at a density of 3×10^5 cells/ml.” for “cells.”
Cultured cells were incubated at 37°C for 1 h with fresh serum-free medium in the absence or presence of test substances. […] The amount of Bax and Bcl-2 cDNA in each sample was calculated by the comparative threshold cycle (Ct) method and expressed as 2^exp(−ΔΔCt) using glyceraldehyde-3-phosphate dehydrogenase as an internal control.

For “ODN: octadecaneuropeptide, endozepine derived from diazepam-binding inhibitor; endogenous ligand of central-type benzodiazepine and metabotropic receptors; synthesized by Fmoc procedure (QATVGDVNTDRPGLLDLK; Octadecaneuropeptide; UniProt P11030 34-51, looked up)”, the “effect on H2O2-induced astrocyte cell death” value in test [1] is on record as “able to reverse the effect of 300 µM H2O2-induced astrocyte cell death”. Moreover, in test [2] (ODN 0.1 nM, 300 µM H2O2, FDA fluorescence), the “time-course of protection against H2O2-induced cell injury” value was “totally blocked H2O2-induced cell injury during the first 60 min”. For the same substance, in test [2] (ODN 0.1 nM, refills of 0.1 nM after 30, 60, 90, 120 and 150 min, 300 µM H2O2), the “duration of the protective effect with fresh doses of peptide” value is at least 150 min. In addition, in test [2] (ODN 0.1 nM, 10 min pre-incubation, 1 h 300 µM H2O2, FDA fluorescence), the “maximum effect (survival)” value was around 95%. Besides, the “time after onset of peptide administration at which the protective action vanished” value in test [2] (single dose of ODN 0.1 nM, 300 µM H2O2) was found to be 180 min. Also, the “delay of H2O2-induced cell death” value in test [2] (time-course, ODN 0.1 nM, 300 µM H2O2) was “approximately 1 h”. The “effect on H2O2-induced morphological changes and loss of calcein labeling” value in test [3] was “totally prevented the deleterious effects of H2O2”. Besides, the “maximum stimulation of cAMP formation” value in test [4] turned out to be 179 % over control. In test [5] (10 min pre-incubation, 1 h 300 µM H2O2), the “effect on H2O2-induced increase of Bax mRNA levels” value is given as “totally prevented the increase of Bax mRNA levels induced by H2O2”. The “effect on Bax mRNA levels, peptide alone” value in test [5] (1 h, RT-PCR) is “had no effect on Bax mRNA levels”.
